Data published in patent publication US11230543B2, “Biaryl monobactam compounds and methods of use thereof for the treatment of bacterial infections” (priority 2015, dated 2022).
Structures can show the parent of a compound that is named as a salt.

What was measured:
[1] = tested on: Pseudomonas aeruginosa expressing AmpC (CL5701); test: Antibiotic activity: growth inhibitory concentration (OD600), Pseudomonas aeruginosa CL5701; assay type: cell-based; conditions: lowest concentration inhibiting 95% of bacterial growth; in the presence of β lactamase inhibitor Relebactam 4 μg/mL; 35±2° C. for 22 hours; tested range 100 μM to 0.098 μM
Method: (§1) Antibiotic Activity: Determination of Growth Inhibitory Concentration
(§2) The concentrations of compounds required to inhibit the growth of various strains of bacteria were determined in an assay that assessed bacterial growth by measuring optical density at 600 nm (OD600). The bacterial strains tested included the clinical strains Escherichia coli expressing NDM-1 (CLB30016), Klebsiella pneumoniae expressing KPC-1 (CL6569), Acinetobacter baumannii expressing TEM-1, AmpC, and Oxa-24/40 (CL6188) and Pseudomonas aeruginosa expressing AmpC (CL5701). All compounds were tested in the presence of a β lactamase inhibitor (BLi, Relebactam) in 384-well microplates. The clinical strains were stored as frozen single use stocks, thawed and diluted into 1.1× cation-adjusted Mueller-Hinton II broth to achieve approximately 2×10^5 CFU/mL. Test compounds were dissolved in DMSO and diluted 1:50 in the assay, resulting in a final concentration range of 100 μM to 0.098 μM. On the day of the assay, 1 μL of test compound was added to the plate followed by 4 μL of 50 μg/mL BLi in MOPS buffer and 45 μL of diluted bacteria. Plates were centrifuged at 1000 rpm for 30 seconds, shaken at approximately 800 rpm for 1 minute, and incubated at 35±2° C. for 22 hours. The concentration of BLi used in the assay was 4 μg/mL. At the end of the incubation, absorbance at 600 nm was determined using a spectrophotometer. Inhibition was quantitated by identifying the lowest concentration of test compound that was required to inhibit 95% of the growth of the bacteria. The results for Examples 1-126 are reported in Table I, expressed as the concentration of compound that inhibited 95% of bacterial growth (Minimum Inhibitory Threshold Concentration; MITC95).

[2] = tested on: Klebsiella pneumoniae expressing KPC-1 (CL6569); test: Antibiotic activity: growth inhibitory concentration (OD600), Klebsiella pneumoniae CL6569; assay type: cell-based; conditions: lowest concentration inhibiting 95% of bacterial growth, in the presence of β lactamase inhibitor Relebactam 4 μg/mL, 35±2° C. for 22 hours, tested range 100 μM to 0.098 μM
Method: as §1, §2

Compound | PA_CL5701 MITC95 [1] | KP_CL6569 MITC95 [2] | KP_CL6569 MITC95 ([2]; 2,2,2-trifluoroacetate)
CCOC(=O)[C@H](COc1ccc(-c2cn(CCCN)[n+](C)c2)cc1)O/N=C(\C(=O)N[C@@H]1C(=O)N(OS(=O)(=O)[O-])C1(C)C)c1csc(N)n1 [Example 115, (S)-3-((Z)-2-((((S)-3-(4-(1-(3-aminopropyl)-2-methyl-1H-pyrazol-2-ium-4-yl)phenoxy)-1-ethoxy-1-oxopropan-2-yl)oxy)imino)-2-(2-aminothiazol-4-yl)acetamido)-2,2-dimethyl-4-oxoazetidin-1-yl sulfate] | 100 µM | 12.5 µM | 
C[n+]1cc(-c2ccc(OC[C@H](O/N=C(/C(=O)N[C@@H]3C(=O)N(OS(=O)(=O)[O-])C3(C)C)c3csc(N)n3)C(=O)O)cc2)cn1CCCNCCN [Example 102, (S)-3-((E)-2-(((S)-2-(4-(1-(3-((2-aminoethyl)amino)propyl)-2-methyl-1H-pyrazol-2-ium-4-yl)phenoxy)-1-carboxyethoxy)imino)-2-(2-aminothiazol-4-yl)acetamido)-2,2-dimethyl-4-oxoazetidin-1-yl sulfate] | 3.125 µM | 0.125 µM | 
CC1(C)[C@H](NC(=O)/C(=N\O[C@@H](COc2ccc(-c3cc(CNCCN)n(CCCN)n3)cc2)C(=O)O)c2csc(N)n2)C(=O)N1OS(=O)(=O)O [Example 125, (S)-3-(4-(5-(((2-Aminoethyl)amino)methyl)-1-(3-aminopropyl)-1H-pyrazol-3-yl)phenoxy)-2-((((Z)-1-(2-aminothiazol-4-yl)-2-(((S)-2,2-dimethyl-4-oxo-1-(sulfooxy)azetidin-3-yl)amino)-2-oxoethylidene)amino)oxy)propanoic acid] | 3.125 µM | 0.39 µM | 
C[n+]1cc(-c2ccc(OC[C@](C)(O/N=C(\C(=O)N[C@@H]3C(=O)N(OS(=O)(=O)O)C3(C)C)c3csc(N)n3)C(=O)O)cc2)ccc1NCCN [Example 87, (S)-3-((Z)-2-((((S)-1-(4-(6-((2-aminoethyl)amino)-1-methylpyridin-1-ium-3-yl)phenoxy)-2-carboxypropan-2-yl)oxy)imino)-2-(2-aminothiazol-4-yl)acetamido)-2,2-dimethyl-4-oxoazetidin-1-yl sulfate] | 3.125 µM | 0.1953 µM | 
C[n+]1cc(-c2ccc(OC[C@H](O/N=C(\C(=O)N[C@@H]3C(=O)N(OS(=O)(=O)[O-])C3(C)C)c3nc(N)sc3Cl)C(=O)O)cc2)ccc1NCCN [Example 67, (S)-3-((Z)-2-(2-amino-5-chlorothiazol-4-yl)-2-(((S)-2-(4-(6-((2-aminoethyl)amino)-1-methylpyridin-1-ium-3-yl)phenoxy)-1-carboxyethoxy)imino)acetamido)-2,2-dimethyl-4-oxoazetidin-1-yl sulfate] | 6.25 µM | 0.7813 µM | 
CC1[C@H](NC(=O)/C(=N\O[C@@H](COc2ccc(-c3cnn(CCCN)c3)cc2)C(=O)O)c2csc(N)n2)C(=O)N1S(=O)(=O)O (stereo in doubt) [Example 8, (S)-3-(4-(1-(3-aminopropyl)-1H-pyrazol-4-yl)phenoxy)-2-((((Z)-1-(2-aminothiazol-4-yl)-2-(((2R,3S)-2-methyl-4-oxo-1-sulfoazetidin-3-yl)amino)-2-oxoethylidene)amino)oxy)propanoic acid] | 25 µM | 3.125 µM | 
C[n+]1cc(-c2ccc(OC[C@H](O/N=C(\C(=O)N[C@@H]3C(=O)N(OS(=O)(=O)O)C3(C)C)c3csc(N)n3)C(=O)O)cc2F)cn1CC(N)CN (single isomer, unassigned) [Example 46] | 6.25 µM | 0.3906 µM | 
C[n+]1cc(-c2ccc(OC[C@H](O/N=C(\C(=O)N[C@@H]3C(=O)N(OS(=O)(=O)O)C3(C)C)c3csc(N)n3)C(=O)O)cc2F)cn1CC(O)CN.O=CO (stereo partly drawn) [Example 44, (3S)-3-((Z)-2-(((1S)-2-(4-(1-(3-amino-2-hydroxypropyl)-2-methyl-1H-pyrazol-2-ium-4-yl)-3-fluorophenoxy)-1-carboxyethoxy)imino)-2-(2-aminothiazol-4-yl)acetamido)-2,2-dimethyl-4-oxoazetidin-1-yl sulfate compound with formic acid (1:1)] | 3.125 µM | 0.1953 µM | 
C[n+]1cc(-c2ccc(OCC(C)(O/N=C(\C(=O)N[C@@H]3C(=O)N(OS(=O)(=O)O)C3(C)C)c3csc(N)n3)C(=O)O)cc2)cn1CCCN (single isomer, unassigned) [Example 23A, 2,2,2-trifluoroacetate] | 3.125 µM |  | 0.3906 µM
CC1(C)[C@H](NC(=O)/C(=N\O[C@@H](COc2ccc(Nc3cc[n+](CC4CNC4)cc3)nc2)C(=O)O)c2csc(N)n2)C(=O)N1OS(=O)(=O)[O-] [Example 108, (S)-3-((Z)-2-(2-aminothiazol-4-yl)-2-(((S)-2-((6-((1-(azetidin-3-ylmethyl)pyridin-1-ium-4-yl)amino)pyridin-3-yl)oxy)-1-carboxyethoxy)imino)acetamido)-2,2-dimethyl-4-oxoazetidin-1-yl sulfate] | 12.5 µM | 0.7813 µM | 
CC1(C)[C@H](NC(=O)/C(=N\O[C@@H](COc2ccc([C@H]3CN=C(NCCN)N3)cc2)C(=O)O)c2csc(N)n2)C(=O)N1OS(=O)(=O)O [Example 58, (S)-3-(4-((S)-2-((2-aminoethyl)amino)-4,5-dihydro-1H-imidazol-4-yl)phenoxy)-2-((((Z)-1-(2-aminothiazol-4-yl)-2-(((S)-2,2-dimethyl-4-oxo-1-(sulfooxy)azetidin-3-yl)amino)-2-oxoethylidene)amino)oxy)propanoic acid] | 3.125 µM | 0.3906 µM | 
C[n+]1nc(-c2ccc(OC[C@H](O/N=C(\C(=O)N[C@@H]3C(=O)N(OS(=O)(=O)[O-])C3(C)C)c3csc(N)n3)C(=O)O)cc2)ccc1NCCCN [Example 123, (S)-3-((Z)-2-(((S)-2-(4-(6-((3-aminopropyl)amino)-1-methylpyridazin-1-ium-3-yl)phenoxy)-1-carboxyethoxy)imino)-2-(2-aminothiazol-4-yl)acetamido)-2,2-dimethyl-4-oxoazetidin-1-yl sulfate] | 12.5 µM | 0.3906 µM | 
CC1(C)[C@H](NC(=O)/C(=N\O[C@@H](COc2ccc(-n3cc[n+](CCC[N+](C)(C)C)c3)nc2)C(=O)O)c2csc(N)n2)C(=O)N1OS(=O)(=O)O [Example 110, (S)-3-((Z)-2-(2-aminothiazol-4-yl)-2-(((S)-1-carboxy-2-((6-(3-(3-(trimethylammonio)propyl)-1H-imidazol-3-ium-1-yl)pyridin-3-yl)oxy)ethoxy)imino)acetamido)-2,2-dimethyl-4-oxoazetidin-1-yl sulfate] | 50 µM | 1.563 µM | 
CC1(C)[C@H](NC(=O)/C(=N\O[C@@H](COc2ccc(-c3cn(C[C@@H](O)CN)[n+](CC4CNC4)c3)cc2)C(=O)O)c2csc(N)n2)C(=O)N1OS(=O)(=O)[O-] [Example 52, (S)-3-((Z)-2-(((S)-2-(4-(1-((S)-3-Amino-2-hydroxypropyl)-2-(azetidin-3-ylmethyl)-1H-pyrazol-2-ium-4-yl)phenoxy)-1-carboxyethoxy)imino)-2-(2-aminothiazol-4-yl)acetamido)-2,2-dimethyl-4-oxoazetidin-1-yl sulfate] | 1.563 µM | 0.1953 µM | 
C[n+]1cc(-c2ccc(OCCO/N=C(\C(=O)N[C@@H]3C(=O)N(OS(=O)(=O)O)C3(C)C)c3csc(N)n3)cc2)cn1CCCN [Example 4, (S,Z)-3-(2-((2-(4-(1-(3-aminopropyl)-2-methyl-1H-pyrazol-2-ium-4-yl)phenoxy)ethoxy)imino)-2-(2-aminothiazol-4-yl)acetamido)-2,2-dimethyl-4-oxoazetidin-1-yl sulfate] | 25 µM | 1.281 µM | 
C[n+]1cc(-c2ccc(OC[C@H](O/N=C(\C(=O)N[C@@H]3C(=O)N(OS(=O)(=O)[O-])C3(C)C)c3csc(N)n3)C(=O)O)cc2)cnc1NCCN [Example 77, (S)-3-((Z)-2-(((S)-2-(4-(2-((2-aminoethyl)amino)-1-methylpyrimidin-1-ium-5-yl)phenoxy)-1-carboxyethoxy)imino)-2-(2-aminothiazol-4-yl)acetamido)-2,2-dimethyl-4-oxoazetidin-1-yl sulfate] | 3.125 µM | 0.3906 µM | 
